Ten molecules from ChEMBL document CHEMBL1201862, “PubChem BioAssay data set” (2004) can be followed below.

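Interpolation was linear, between the two tested concentrations surrounding the appropriate level; five concentrations were tested over 48 hours in 96-well plates. At the GI50, growth is halved.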 The source made the active and inactive calls. No stated cut-off is given here; in the data, active = GI50 up to about 1.1 µM and inactive = higher.

Test in all cases: DTP human tumour cell line panel, 48 h
Test [1] has as its system 786-0.
Test [2] has as its system A549.
The test system of test [3] is ACHN.
Test [4] deals with BT-549.
For test [5], the system named is HCC 2998.
The test system of test [6] is HCT-116.
The test system of test [7] is HOP-62.
Test [8] deals with M14.
Test [9] deals with MDA-MB-435.
In test [10] the test system is NCI-H23.
Test [11] relates to NCI-H522.
For test [12], the system named is OVCAR-4.
The test system of test [13] is OVCAR-5.
The subject of test [14] is PC-3.
The subject of test [15] is RPMI-8226.
The test system of test [16] is SK-MEL-5.
In test [17] the test system is SK-OV-3.
Test [18] concerns SR.
The test system of test [19] is SW-620.
In test [20] the test system is UACC-62.

In general, GI50 refers to the concentration at which growth is held to half of that of the control. On to `CN(C)c1ccc(/C=c2\c3ccccc3n3c2cc(-c2ccccc2)[n+]3C)cc1`, for which the GI50 in test [1] is 0.142 µM (active); in test [2], 0.201 µM (active); in test [3], 0.368 µM (active); in [4], 0.0304 µM (active); in [5], 1.35 µM (inactive); in test [6], 0.0853 µM (active). Besides, the GI50 is 0.303 µM (active) in test [7]; 0.157 µM (active) in test [8]; 0.0916 µM (active) in test [9]; 0.0582 µM (active) in test [10]; 0.0193 µM (active) in test [11]; 0.809 µM (active) in [12]. Further, the GI50 in [13] was 0.67 µM (active); in test [14], 0.0726 µM (active); in [15], 0.0172 µM (active); in test [16] it was 0.0728 µM (active); in test [17] it was 0.303 µM (active); in [18], 0.16 µM (active). For the same molecule, the GI50 in test [19] was 0.119 µM (active); in test [20], 0.365 µM (active).

In the case of `CC(=O)O[C@H]1C(=O)[C@@]2(C)[C@H]([C@H](OC(=O)c3ccccc3)[C@]3(O)C[C@H](OC(=O)[C@H](O)[C@@H](NC(=O)c4ccccc4)c4ccc5ccccc5c4)C(C)=C1C3(C)C)[C@]1(OC(C)=O)CO[C@@H]1C[C@@H]2O`, the GI50 was 0.153 µM (active) in test [1]; 0.0998 µM (active) in [2]; 1.51 µM (inactive) in test [3]; 0.0807 µM (active) in test [4]; 0.0457 µM (active) in [5]; 0.0266 µM (active) in test [6]. Moreover, the GI50 in test [7] was 0.0506 µM (active); in test [8], 0.0466 µM (active); in test [9], 0.00993 µM (active); in test [10], 0.0912 µM (active); in test [11], 0.0524 µM (active); in test [12], 0.841 µM (active). The GI50 in test [13] was 0.153 µM (active); in [14] it was 0.0553 µM (active); in test [15], 0.0229 µM (active); in [16] it was 0.0685 µM (active); in [17], 0.0248 µM (active); in test [18], 0.0239 µM (active). The GI50 is 0.0306 µM (active) in test [19] and 0.0463 µM (active) in test [20].

On to `COc1c2c(c(OC)c3c1c(=O)c1ccccc1n3C)OCO2`, for which the GI50 in [1] was 29.2 µM (inactive); in [2] it was 44.5 µM (inactive); in [3], 49.2 µM (inactive); in test [4] it was 15 µM (inactive); in [5], 5.2 µM (inactive); in test [6], 6.15 µM (inactive). The GI50 was 25.2 µM (inactive) in [7]; 9.51 µM (inactive) in [8]; 2.28 µM (inactive) in test [9]; 10.6 µM (inactive) in test [10]; 2.23 µM (inactive) in [11]; 24.6 µM (inactive) in [12]. Besides, the GI50 was > 72.3 µM (inactive) in [13]; 19.7 µM (inactive) in [14]; 11.4 µM (inactive) in [15]; 3.14 µM (inactive) in [16]; 25.5 µM (inactive) in test [17]; 3.69 µM (inactive) in [18]. The GI50 in [19] is 4.13 µM (inactive); in [20] it was 9.06 µM (inactive).

In the case of `O=C(CCCN1CCC2(CC1)C(=O)NC(=O)N2c1ccccc1)c1ccc(F)cc1`, the GI50 in test [1], in [2], in test [3], in [4], in test [5] and in [6] was > 100 µM (inactive) in each case. Further, the GI50 in test [7] was > 100 µM (inactive); in [8], > 100 µM (inactive); in test [9] it was > 100 µM (inactive); in test [10], > 100 µM (inactive); in test [11] it was 8.73 µM (inactive); in [12], > 100 µM (inactive). The GI50 in [13], in [14], in [15], in test [16], in [17] and in test [18] was > 100 µM (inactive) throughout. Besides, the GI50 in [19] and in [20] was > 100 µM (inactive) each time.

Turning to `O=C(N/N=C\c1cccc2ccccc12)Nc1ccc([N+](=O)[O-])cc1`, the GI50 in [1] is 3.54 µM (inactive); in [2], 9.71 µM (inactive); in test [3], 11.6 µM (inactive); in test [4] it was 20 µM (inactive); in test [5], 15.8 µM (inactive); in test [6], 6.28 µM (inactive). For the same molecule, the GI50 in test [7] is 17.9 µM (inactive); in [8], 28.1 µM (inactive); in test [9] it was 18.9 µM (inactive); in [10] it was 8.89 µM (inactive); in test [11] it was 5.66 µM (inactive); in test [12], 8.04 µM (inactive). For the same molecule, the GI50 was 19.7 µM (inactive) in [13]; 6.95 µM (inactive) in test [14]; > 19.7 µM (inactive) in test [15]; 22.6 µM (inactive) in test [16]; 24.6 µM (inactive) in test [17]; > 27.6 µM (inactive) in [18]. Besides, the GI50 in [19] is 29.6 µM (inactive); in test [20], 18.1 µM (inactive).

With `O=[N+]([O-])c1cc(-[n+]2cc([O-])on2)ccc1F`, the GI50 in test [1] is 11.7 µM (inactive); in test [2], 17 µM (inactive); in test [3], 17 µM (inactive); in test [4], 16.1 µM (inactive); in test [5] it was 14.4 µM (inactive); in test [6], 15.3 µM (inactive). Besides, the GI50 in [7] is 15.8 µM (inactive); in test [8], 16.1 µM (inactive); in test [9], 16.2 µM (inactive); in test [10] it was 18.2 µM (inactive); in test [11] it was 9.02 µM (inactive); in [12] it was 11.9 µM (inactive). In addition, the GI50 in [13] was 16.5 µM (inactive); in test [14], 18.4 µM (inactive); in test [15], 8.97 µM (inactive); in [16], 15 µM (inactive); in test [17], 20.4 µM (inactive); in test [18], 6.24 µM (inactive). For the same molecule, the figures for the GI50 in test [19] and in [20] were 18.4 µM (inactive) and 17.1 µM (inactive), respectively.

Regarding `CCOC(=O)c1c(N2CCOCC2)[nH]c(=O)c(C(c2ccc(N(C)C)cc2)c2c(O)c(C(=O)OCC)c(N3CCOCC3)[nH]c2=O)c1O`, the GI50 in [1], in test [2], in test [3], in test [4], in test [5] and in test [6] was > 100 µM (inactive) each time. Also, the GI50 in test [7], in [8], in test [9], in test [10], in test [11] and in [12] was > 100 µM (inactive) each time. In addition, the GI50 in test [13] is > 100 µM (inactive); in [14] it was > 100 µM (inactive); in test [15], 46.6 µM (inactive); in test [16], > 100 µM (inactive); in test [17], > 100 µM (inactive); in test [18], > 100 µM (inactive). Further, the GI50 in test [19] and in [20] was > 100 µM (inactive) in each case.

Take `CN(C)c1ccc(/C=C/C(=O)c2ccc(O)cc2)cc1`: the GI50 is 7.64 µM (inactive) in test [1]; 6.27 µM (inactive) in test [2]; 18.8 µM (inactive) in [3]; 6.08 µM (inactive) in [4]; 15.1 µM (inactive) in [5]; 3.69 µM (inactive) in [6]. Moreover, the GI50 in [7] is 10.1 µM (inactive); in test [8], 4.14 µM (inactive); in test [9], 1.27 µM (inactive); in test [10], 11.3 µM (inactive); in test [11], 2.71 µM (inactive); in [12] it was 24.2 µM (inactive). In addition, the GI50 in [13] was 38.6 µM (inactive); in test [14] it was 14.8 µM (inactive); in [15], 3.85 µM (inactive); in test [16], 6.58 µM (inactive); in test [17], 4.78 µM (inactive); in [18], 0.33 µM (active). Also, the GI50 in test [19] is 3.57 µM (inactive); in test [20], 4.08 µM (inactive).

Take `C=C1CC(Cn2ccc(=O)[nH]c2=O)(c2ccc(OC)cc2)OC1=O` (centres undefined): the GI50 in test [1] was 11.7 µM (inactive); in test [2], 24 µM (inactive); in test [3], 18.7 µM (inactive); in [4], 12.2 µM (inactive); in test [5], 13 µM (inactive); in test [6], 6.15 µM (inactive). Besides, the GI50 in [7] was 47.4 µM (inactive); in [8], 7.21 µM (inactive); in test [9] it was 15.8 µM (inactive); in [10] it was 11.2 µM (inactive); in [11] it was 1.94 µM (inactive); in test [12], 16.8 µM (inactive). For the same molecule, the GI50 in test [13] is 17.5 µM (inactive); in [14], 16 µM (inactive); in [15] it was 2.88 µM (inactive); in test [16] it was 13.9 µM (inactive); in test [17], 28.8 µM (inactive); in [18] it was 2.9 µM (inactive). Moreover, the GI50 in test [19] was 3.7 µM (inactive); in [20], 14.3 µM (inactive).

For `O=S(=O)(O)CCCC1S(=O)(=O)OCCOS1(=O)=O`, the GI50 in [1], in [3], in test [4], in test [5], in [6] and in test [7] was > 100 µM (inactive) throughout. The GI50 in test [8], in test [9], in test [10], in test [11], in test [12] and in [13] was > 100 µM (inactive) each time. The GI50 in test [14], in [15], in test [16], in test [17], in test [18] and in test [19] was > 100 µM (inactive) throughout. Besides, the GI50 in test [20] is > 100 µM (inactive).
